From the Bradley open melting point set (2014)

Question: For `ClC(Cl)(Cl)c1ccccc1` [benzotrichloride], which melting point is on record?
Answer: -4 °C

Question: For `CC(C)(C)NCC(O)c1ccc(O)c(CO)c1` (stereo not given) [Salbutamol], which melting point is on record?
Answer: 158 °C

Question: With `CCOC(=O)c1cc(C)nn1C(=O)OCC` [diethyl 3-methyl-1H-pyrazole-1,5-dicarboxylate] as the molecule, how does the melting point read?
Answer: 81 °C

Question: With `O=C(O)c1cccc(O)c1O` [2,3-dihydroxybenzoic acid] as the molecule, how does the melting point read?
Answer: 206 °C

Question: Which melting point does the source give for `CC1(C)[C@@H]2CC[C@@]1(C)[C@@H](O)C2` [borneol] here?
Answer: 207 °C

Question: For `CCCCCCCCCCCCN` [Dodecan-1-amine], which melting point is on record?
Answer: 29 °C

Question: Which melting point does the source give for `Nc1ccc(N)c2c1C(=O)c1c(N)ccc(N)c1C2=O` [1,4,5,8-Tetraamino-9,10-anthraquinone] here?
Answer: 332 °C

Question: Which melting point does the source give for `CN(C)CCCN1c2ccccc2Sc2ccc(Cl)cc21` [chlorpromazine] here?
Answer: 57 °C

Question: For `Cc1cccc(C(=O)O)c1` [3-Methylbenzoic acid], which melting point is on record?
Answer: 112 °C

Question: Which melting point does the source give for `O=C(/C=C/c1ccccc1)c1ccc(Cl)cc1` [4'-chlorochalcone] here?
Answer: 99 °C

Question: With `CC(C)Nc1ccccc1` [N-isopropylaniline] as the molecule, how does the melting point read?
Answer: -32 °C

Question: With `O=Cc1ccc(OCC(=O)O)cc1` [4-formylphenoxyacetic acid] as the molecule, how does the melting point read?
Answer: 196 °C

Question: For `C#CC(C)(C)C` [3,3-dimethyl-1-butyne], which melting point is on record?
Answer: -78 °C

Question: With `CCCCCCI` [1-iodohexane] as the molecule, how does the melting point read?
Answer: -75 °C

Question: For `Cc1ccccc1Cc1ccccc1` [2-methyldiphenylmethane], which melting point is on record?
Answer: 7 °C

Question: Which melting point does the source give for `CCOC(=O)c1ccc(O)cc1` [ethyl p-hydroxybenzoate] here?
Answer: 116 °C

Question: For `COc1ccc(Cl)cc1I` [4-chloro-2-iodoanisole], which melting point is on record?
Answer: 46 °C

Question: For `COc1ccc(C(C)(C)C)cc1B(O)O` [5-tert-butyl-2-methoxybenzeneboronic acid], which melting point is on record?
Answer: 105 °C

Question: With `CCOC(=O)C1=C(C(=O)OCC)C(C)N=N1` (stereo not given) [diethyl 5-methyl-1H-pyrazole-3,4-dicarboxylate] as the molecule, how does the melting point read?
Answer: 99 °C

Question: Which melting point does the source give for `CC(C)c1ccc(Cl)cc1` [p-chlorocumene] here?
Answer: -12 °C

Question: With `O=c1[nH]c(=O)n([C@@H]2O[C@H](CO)[C@@H](O)[C@H]2O)cc1Br` [5-bromouridine] as the molecule, how does the melting point read?
Answer: 192 °C

Question: For `CC(=O)c1ccc(S(=O)(=O)NC(=O)NC2CCCCC2)cc1` [Acetohexamide], which melting point is on record?
Answer: 189 °C

Question: For `CC(C)Cc1ccc(C(C)C(=O)O)cc1` (stereo not given) [ibuprofen], which melting point is on record?
Answer: 75 °C

Question: Which melting point does the source give for `Cc1cccc2ccccc12` [1-methylnaphthalene] here?
Answer: -22 °C

Question: With `CCCCCCCCCCCCCC(C)C` [2-Methylpentadecane] as the molecule, how does the melting point read?
Answer: -7 °C

Question: Which melting point does the source give for `C=CCCCCCCCCCCCCCC` [1-hexadecene] here?
Answer: 4 °C

Question: For `Nc1ccc(/N=C/c2cccc([N+](=O)[O-])c2)cc1` [4-[(E)-(3-Nitrobenzylidene)amino]aniline], which melting point is on record?
Answer: 148 °C

Question: For `O=C(/C=C/OC(=O)c1ccccc1)CCc1ccccc1` [(1E)-3-oxo-5-phenylpent-1-en-1-yl benzoate], which melting point is on record?
Answer: 100 °C

Question: For `O=C(O)CCCCCCC(=O)O` [suberic_acid], which melting point is on record?
Answer: 144 °C

Question: With `C[C@H]1C[C@H]2[C@@H]3CCC4=CC(=O)C=C[C@]4(C)[C@@]3(F)[C@@H](O)C[C@]2(C)[C@@]1(O)C(=O)CO` [betamethasone] as the molecule, how does the melting point read?
Answer: 232 °C

Question: Which melting point does the source give for `Cc1cc(C)c(C)c(CCl)c1C` [3-(chloromethyl)-1,2,4,5-tetramethylbenzene] here?
Answer: 70.5 °C

Question: With `N#CCc1cccc(Br)c1` [m-bromophenylacetonitrile] as the molecule, how does the melting point read?
Answer: 28 °C

Question: Which melting point does the source give for `O=C(O)c1ccccc1Cl` [2-Chlorobenzoic acid] here?
Answer: 140 °C

Question: With `O=C(/C=C1\Cc2ccccc21)c1ccccc1` as the molecule, how does the melting point read?
Answer: 55 °C

Question: Which melting point does the source give for `CC(C=CC=C(C)/C=C/C1=C(C)CCCC1(C)C)=CC(=O)O` [Tretinoin] here?
Answer: 181 °C

Question: For `O=C(O)C(c1ccccc1)c1ccccc1` [diphenylacetic acid], which melting point is on record?
Answer: 147 °C

Question: For `CCCCCC(N)=O` [hexanamide], which melting point is on record?
Answer: 101 °C

Question: With `CC1CCC(C(C)C)C(O)C1` (racemic) [dl-menthol] as the molecule, how does the melting point read?
Answer: 29 °C

Question: Which melting point does the source give for `Cc1cc(C)cc([N+](=O)[O-])c1` [5-nitro-1,3-dimethylbenzene] here?
Answer: 74 °C

Question: For `COc1c(N2C[C@@H]3CCCN[C@@H]3C2)c(F)cc2c(=O)c(C(=O)O)cn(C3CC3)c12` [Moxifloxacin], which melting point is on record?
Answer: 240 °C

Question: Which melting point does the source give for `CCCCCCCCN(C)C` [N,N-dimethyl-n-octylamine] here?
Answer: -57 °C

Question: For `CC(=O)NC1=C(C)CCCC1` [N-(2-methylcyclohex-1-en-1-yl)acetamide], which melting point is on record?
Answer: 90 °C

Question: Which melting point does the source give for `O=[N+]([O-])c1ccc(Oc2ccc(C(F)(F)F)cc2[N+](=O)[O-])cc1` [fluorodifen] here?
Answer: 94 °C

Question: With `CC12CCC3C(C(=O)CC4CC(=O)CCC43C)C1CCC2=O` (stereo not given) [androstane-3,7,17-trione] as the molecule, how does the melting point read?
Answer: 232 °C

Question: With `c1ccc(Cc2ccccc2)cc1` [diphenylmethane] as the molecule, how does the melting point read?
Answer: 25 °C

Question: For `CCCCCCCCCCOc1ccc(/C=N/c2ccc(/C=C/C(=O)OCC)cc2)cc1`, which melting point is on record?
Answer: 115 °C

Question: Which melting point does the source give for `Nc1cc(-c2ccccc2)c(O)c(-c2ccccc2)c1` [5'-Amino-1,1':3',1''-terphenyl-2'-ol] here?
Answer: 149 °C

Question: With `c1ccc(-c2ccccc2-c2ccccc2)cc1` [o-terphenyl] as the molecule, how does the melting point read?
Answer: 57 °C

Question: For `Cc1cc[n+]([O-])cc1C#N` [4-methylpyridine-3-carbonitrile 1-oxide], which melting point is on record?
Answer: 185 °C

Question: Which melting point does the source give for `c1ccsc1` [Thiophene] here?
Answer: -38 °C

Question: Which melting point does the source give for `CCCCc1c2c(cc3c1-c1ccccc1OC3)CCCC2=O` [12-Butyl-9,10-dihydro-6H-naphtho[2,3-c]chromen-11(8H)-one] here?
Answer: 91 °C

Question: Which melting point does the source give for `COc1cccc(OC)c1CN` [2,6-dimethoxybenzylamine] here?
Answer: 85 °C

Question: Which melting point does the source give for `O=C(O)/C(=C/c1ccccc1[N+](=O)[O-])c1ccccc1` [(E)-2-phenyl-3-(2-nitrophenyl)propenoic acid] here?
Answer: 198 °C

Question: Which melting point does the source give for `CCOc1ccc(NC(=O)CN)cc1` [Phenokoll] here?
Answer: 101 °C

Question: For `COc1cc[n+]([O-])cc1` [4-methoxypyridine n-oxide], which melting point is on record?
Answer: 102 °C

Question: With `O=Cc1ccccc1[N+](=O)[O-]` [o-nitrobenzaldehyde] as the molecule, how does the melting point read?
Answer: 46 °C

Question: For `Clc1ccc(Cl)nn1` [3,6-dichloropyridazine], which melting point is on record?
Answer: 68 °C

Question: For `c1ccc2c(c1)ccc1cc3c(ccc4ccccc43)cc12` [dibenz[a,h]anthracene], which melting point is on record?
Answer: 270 °C

Question: For `O=[N+]([O-])c1ccccc1O` [2-Nitrophenol], which melting point is on record?
Answer: 44 °C

Question: With `CC(N)C(=O)O` (stereo in doubt) [D-Alanine] as the molecule, how does the melting point read?
Answer: 292 °C

Question: For `CC(=O)C1=CC[C@H]2[C@@H]3CC(=O)C4=C[C@@H](O)CC[C@]4(C)[C@H]3CC[C@]12C` [3β-Hydroxypregna-4,16-diene-6,20-dione], which melting point is on record?
Answer: 169 °C

Question: For `CCC1(c2ccccc2)CCC(=O)NC1=O` (stereo not given) [glutethimide], which melting point is on record?
Answer: 87.5 °C

Question: For `c1ccc2c(c1)CCCN2` [1,2,3,4-tetrahydroquinoline], which melting point is on record?
Answer: 14 °C

Question: With `COc1ccccc1C(=O)O` [2-methoxybenzoic acid] as the molecule, how does the melting point read?
Answer: 101 °C

Question: With `CCN(CC)c1ccc(N=O)cc1` [N,N-diethyl-4-nitrosoaniline] as the molecule, how does the melting point read?
Answer: 82 °C

Question: Which melting point does the source give for `CCOc1ccc(NC(C)=O)cc1` [Phenacetin] here?
Answer: 135 °C

Question: With `CCC1=C(/C=N/Nc2ccc([N+](=O)[O-])cc2[N+](=O)[O-])CCCC1` as the molecule, how does the melting point read?
Answer: 194 °C

Question: For `CCC(C)=O` [2-butanone], which melting point is on record?
Answer: -86 °C

Question: Which melting point does the source give for `Clc1cc(Cl)cc(I)c1` [1,3-dichloro-5-iodobenzene] here?
Answer: 57 °C

Question: Which melting point does the source give for `N#Cc1ccccc1C(N)=O` [o-cyanobenzamide] here?
Answer: 172 °C
